{"source": "patent US20110105564A1", "about": "“THIENYLPYRIDYLCARBOXAMIDES” (Bayer CropScience AG, priority 2005, published 2011)"}
{"assay": "logP determination by HPLC on a reverse-phase column (EEC Directive 79/831 Annex V.A8)", "type": "physicochemical", "settings": "reverse-phase HPLC column (C 18); acidic range pH 2.3; 0.1% aqueous phosphoric acid and acetonitrile, linear gradient 10% to 90% acetonitrile; C 18 column; 43° C.", "experimental": "The logP values given in the Tables and Preparation Examples above are determined in accordance with EEC Directive 79/831 Annex V.A8 by HPLC (High Performance Liquid Chromatography) on a reverse-phase column (C 18). Temperature: 43° C. The determination is carried out in the acidic range at pH 2.3 using the mobile phases 0.1% aqueous phosphoric acid and acetonitrile; linear gradient from 10% acetonitrile to 90% acetonitrile. Calibration is carried out using unbranched alkan-2-ones (having 3 to 16 carbon atoms), with known logP values (determination of the logP values by the retention times using linear interpolation between two successive alkanones)."}
{"smiles": "O=C(Nc1ccsc1-c1ccc(Br)cn1)c1cccnc1Cl", "note": "[Example 1, N-[2-(5-bromopyridin-2-yl)-3-thienyl]-2-chloronicotinamide]", "chromatographic logP": 2.25}
{"smiles": "Nc1ccsc1-c1ccc(Br)cn1", "note": "[Example (III-1), 2-(5-bromopyridin-2-yl)thiophene-3-amine]", "chromatographic logP": 0.87}
{"smiles": "CC(C)(C)OC(=O)Nc1ccsc1I", "note": "[Example (VI-1), tert-butyl (2-iodo-3-thienyl)carbamate]", "chromatographic logP": 2.43}
{"smiles": "CC(C)(C)OC(=O)Nc1ccsc1-c1ccc(Br)cn1", "note": "[Example (III-a-1), tert-butyl[2-(5-bromopyridin-2-yl)-3-thienyl]carbamate]", "chromatographic logP": 3.27}
